Measurements as given in ChEMBL document CHEMBL1201862, “PubChem BioAssay data set” (2004).
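Five compound concentrations were applied to cells in 96-well plates for 48 hours; endpoints were derived by simple linear interpolation of the resulting dose-response curve. The concentration for 50% growth inhibition is given as GI50.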 Active and inactive are the calls of the source. No stated cut-off is given here; in the data, active = GI50 up to about 1.1 µM and inactive = higher.

What was measured:
Assay in all cases: NCI anticancer screen, dose series, 48 h
NCI-H522 = system: NCI-H522
K562 = system: K562
SNB-19 = system: SNB-19
SR = system: SR
HL-60 = system: HL-60
COLO 205 = system: COLO 205
SF-268 = system: SF-268
NCI-H460 = system: NCI-H460
MOLT-4 = system: MOLT-4
UACC-62 = system: UACC-62
OVCAR-4 = system: OVCAR-4
RXF 393 = system: RXF 393
SK-OV-3 = system: SK-OV-3
SF-295 = system: SF-295
UACC-257 = system: UACC-257
SK-MEL-2 = system: SK-MEL-2
HCT-15 = system: HCT-15
TK-10 = system: TK-10
HCT-116 = system: HCT-116
SNB-75 = system: SNB-75

Measured: GI50

COc1ccc(CC2OC3(CCCCC3)CC3CCCCN32)cc1 (stereo not given)
> 100 µM: HCT-15
inactive: NCI-H522 > 100 µM | K562 27.1 µM | SNB-19 > 100 µM | SR 28.8 µM | HL-60 > 100 µM | COLO 205 > 100 µM | SF-268 > 100 µM | NCI-H460 > 100 µM | MOLT-4 75.9 µM | UACC-62 > 100 µM | OVCAR-4 > 100 µM | RXF 393 > 100 µM | SK-OV-3 > 100 µM | SF-295 > 100 µM | UACC-257 > 100 µM | SK-MEL-2 > 100 µM | TK-10 > 100 µM | HCT-116 43.8 µM | SNB-75 91.2 µM

CS(=O)(=O)OC1CN2CCC1CC2 (stereo not given)
> 100 µM: HCT-15
inactive: NCI-H522 > 100 µM | K562 > 100 µM | SNB-19 > 100 µM | SR > 100 µM | HL-60 > 100 µM | COLO 205 > 100 µM | SF-268 > 100 µM | NCI-H460 > 100 µM | MOLT-4 > 100 µM | UACC-62 > 100 µM | OVCAR-4 > 100 µM | RXF 393 > 100 µM | SK-OV-3 > 100 µM | SF-295 > 100 µM | UACC-257 > 100 µM | SK-MEL-2 > 100 µM | TK-10 > 100 µM | HCT-116 > 100 µM | SNB-75 > 100 µM

Cc1ccc(C2NC(=N)NC3=C2CCOc2c3ccc3ccccc23)cc1 (stereo not given)
active: SR 0.466 µM
4.3 µM: HCT-15
inactive: NCI-H522 33.5 µM | K562 2.19 µM | SNB-19 29.6 µM | HL-60 2.96 µM | COLO 205 20.8 µM | SF-268 24.7 µM | NCI-H460 14.2 µM | MOLT-4 7.26 µM | UACC-62 2.58 µM | OVCAR-4 9.38 µM | RXF 393 31.8 µM | SK-OV-3 42 µM | SF-295 16 µM | UACC-257 31.3 µM | SK-MEL-2 36.7 µM | TK-10 29.4 µM | HCT-116 1.93 µM | SNB-75 5.21 µM

Cc1cc(C#N)c[n+](C)c1
inactive: NCI-H522 > 100 µM | K562 > 100 µM | SNB-19 > 100 µM | SR > 100 µM | HL-60 > 100 µM | COLO 205 > 100 µM | SF-268 > 100 µM | NCI-H460 > 100 µM | MOLT-4 > 100 µM | UACC-62 > 100 µM | OVCAR-4 > 100 µM | RXF 393 > 100 µM | SK-OV-3 > 100 µM | SF-295 > 100 µM | UACC-257 > 100 µM | SK-MEL-2 > 100 µM | TK-10 > 100 µM | HCT-116 > 100 µM | SNB-75 > 100 µM
> 100 µM: HCT-15

Cc1ccc(/C=C/C(=O)c2cccc3ccccc23)cc1
19.1 µM: HCT-15
inactive: NCI-H522 17.1 µM | K562 8.65 µM | SNB-19 16.1 µM | SR 11.3 µM | HL-60 7.18 µM | COLO 205 20.5 µM | SF-268 16.2 µM | NCI-H460 15.2 µM | MOLT-4 13.6 µM | UACC-62 17.4 µM | OVCAR-4 13.4 µM | RXF 393 12.7 µM | SK-OV-3 24.4 µM | SF-295 17.7 µM | UACC-257 18.5 µM | SK-MEL-2 18.5 µM | TK-10 15.2 µM | HCT-116 11.5 µM | SNB-75 19.1 µM

CN(C(=O)C12C3C4C5C3C1(C(=O)C13C6C7C8C6C1C8C73)C5C42)C(C)(C)C (stereo not given)
> 21.3 µM: HCT-15
inactive: NCI-H522 > 32.4 µM | K562 > 25.6 µM | SNB-19 > 50 µM | SR > 50 µM | HL-60 > 19.3 µM | COLO 205 > 29.8 µM | SF-268 > 50 µM | NCI-H460 > 32.7 µM | MOLT-4 29.2 µM | UACC-62 > 50 µM | OVCAR-4 > 50 µM | RXF 393 > 50 µM | SK-OV-3 > 50 µM | SF-295 > 50 µM | UACC-257 > 50 µM | SK-MEL-2 > 50 µM | TK-10 > 50 µM | HCT-116 9.55 µM | SNB-75 > 33 µM

CCCN(CCC)C(=O)c1c([N+](=O)[O-])cc(C(F)(F)F)cc1[N+](=O)[O-]
inactive: NCI-H522 23.2 µM | K562 28.3 µM | SNB-19 68.4 µM | SR 51.3 µM | HL-60 20 µM | COLO 205 15.4 µM | SF-268 > 100 µM | NCI-H460 37 µM | MOLT-4 52.6 µM | UACC-62 17.9 µM | OVCAR-4 14.9 µM | RXF 393 26.2 µM | SK-OV-3 > 100 µM | SF-295 34.4 µM | UACC-257 > 10 µM | SK-MEL-2 39.4 µM | TK-10 > 100 µM | HCT-116 30.5 µM | SNB-75 > 100 µM
27 µM: HCT-15

CCc1cccc(NC(=O)c2cc(/C=C/c3ccccc3)nc(S)n2)c1
> 100 µM: HCT-15
inactive: NCI-H522 > 100 µM | K562 > 100 µM | SNB-19 > 100 µM | SR > 100 µM | HL-60 > 100 µM | COLO 205 > 100 µM | SF-268 > 100 µM | NCI-H460 > 100 µM | MOLT-4 > 100 µM | UACC-62 > 100 µM | OVCAR-4 > 100 µM | RXF 393 > 100 µM | SK-OV-3 > 100 µM | SF-295 > 100 µM | UACC-257 > 100 µM | SK-MEL-2 > 100 µM | TK-10 > 100 µM | HCT-116 > 100 µM | SNB-75 > 100 µM

Cc1ccc(C)c(N2C(=O)C(=O)c3c(C)ccc(C)c32)c1
inactive: NCI-H522 15.5 µM | K562 22 µM | SNB-19 40.6 µM | SR 15.4 µM | HL-60 35.6 µM | COLO 205 34.9 µM | SF-268 23.3 µM | NCI-H460 37.2 µM | MOLT-4 22.3 µM | UACC-62 16.3 µM | OVCAR-4 18.8 µM | RXF 393 49.7 µM | SK-OV-3 47.9 µM | SF-295 22.9 µM | UACC-257 24 µM | SK-MEL-2 20.6 µM | TK-10 28.8 µM | HCT-116 16.3 µM | SNB-75 34.9 µM
14.2 µM: HCT-15

C[C@H]1C(=O)CC[C@]2(C)CCC(C(C)(C)O)CC12O (stereo not given in full)
inactive: NCI-H522 > 100 µM | K562 > 100 µM | SNB-19 > 100 µM | SR > 100 µM | HL-60 > 100 µM | COLO 205 > 100 µM | SF-268 > 100 µM | NCI-H460 > 100 µM | MOLT-4 > 100 µM | UACC-62 > 100 µM | OVCAR-4 > 100 µM | RXF 393 > 100 µM | SK-OV-3 > 100 µM | SF-295 > 100 µM | UACC-257 > 100 µM | SK-MEL-2 > 100 µM | TK-10 > 100 µM | HCT-116 > 100 µM | SNB-75 12.8 µM
> 100 µM: HCT-15
